From patent US9730909B2, “Methods for targeting cancer stem cells” (BOSTON BIOMEDICAL, INC, priority 2010, dated 2017)
Several values for one entry are separate records, joined by “and”; a condition that tells them apart may be missing. Identical values can stand only once. Entries after “also recorded” stand apart in the source; their conditions may differ.

Experiments:
[1] = system: FaDu human head and neck cancer; assay: Subcutaneous FaDu human head and neck cancer xenograft in immunosuppressed mice; assay type: in vivo
Method: In the studies shown in FIG. 8, immunosuppressed mice with established subcutaneous FaDu human head and neck cancer were given indicated amount of hand grounded Compound 1 with Crystal Form 1, or vehicle control orally (po). Compound 1 was formulated in […]™. All regimens were administered daily (qd). Tumor sizes were evaluated periodically during treatment.
In the study shown in FIG. 9, immunosuppressed mice with established subcutaneous FaDu human head and neck cancer were given 100 mg/kg of micronized Compound 1 produced with the synthetic process described in FIGS. 5A and 5B (first crop), or vehicle control orally (po). Compound 1 was formulated in […]™. All regimens were administered daily (qd). Tumor sizes were evaluated periodically during treatment. Form 2 has been successfully manufactured by a current good manufacturing practice (cGMP) process and received approval from the FDA and Health Canada to be used in clinical trials.
Form 3 can only be generated from Form 1 using a specially designed slurry process described herein. […] In the study shown in FIG. 10, immunosuppressed mice with established subcutaneous FaDu human head and neck cancer were given 200 mg/kg of Compound 1 with hand grounded Crystal Form 1 or Form 3, or vehicle control orally (po). Compound 1 was formulated in gelucire. All regimens were administered daily (qd). Tumor sizes were evaluated periodically during treatment. This polymorph has been successfully manufactured by a cGMP process and received approval from FDA and Health Canada to be used in clinical trials.
The anti-tumor activity of particles of Compound 1 with different particle size ranges is illustrated in FIG. 15, and the pharmacokinetic data for particles of Compound 1 with different particle size ranges is illustrated in FIGS. 16-18. In the study shown in FIG. 15, immunosuppressed mice with established subcutaneous FaDu human head and neck cancer were given indicated amount of Compound 1 with indicated particle size, or vehicle control orally (po). All regimens were administered daily (qd). Tumor size was evaluated periodically.
In an experiment, a formulation of Compound 1 particles sieved to 160 micron was tested in the model of immunosuppressed mice with established subcutaneous xenograft FaDu human head and neck cancer. The pharmaceutical composition was formulated as 80 mg/ml in 9% Gelucire, 20% Vitamin E TPGS (Table 3). […] All regimens were administered daily (qd).
In an experiment, Compound 1 crystals were milled to a median particle size of about 20 micron. […] All regimens were administered daily (qd).
FaDu human head and neck cancer cells were inoculated subcutaneously into female athymic nude mice (6×10^6 cells/mouse) and allowed to form palpable tumors. When the tumors reached approximately 100 mm^3, the animals were treated orally (po) with Compound 1 at 100 mg/kg or vehicle control daily. Compound 1 was formulated at 10 mg/ml in 20% gelucire. Tumors and bodyweights were measured throughout treatment (FIG. 15).
(§1) Daily examinations into the health status of each animal were also conducted. Body weights were checked every three days. Food and water was supplied daily according to the animal husbandry procedures of the facility. Treatment producing >20% lethality and or >20% net body weight loss were considered toxic. Results are expressed as mean tumor volume (mm^3)±SE. P Values <0.05 are considered to be statistically relevant.
Male or female athymic nude mice 4-5 weeks (Charles River Laboratories, Wilmington, Mass.), were acclimated to the animal housing facility for at least 1 week before study initiation. […]

[2] = system: advanced solid tumors; assay: Phase I clinical trial: tumor response (RECIST 1.1); assay type: in vivo, human
Text: Of the 42 patients dosed, 24 were evaluable for tumor response as of Feb. 7, 2011; 16 (16/24 evaluable patients) achieved stable disease (8 to 75+ weeks).

[3] = Phase I clinical trial: plasma pharmacokinetics; assay type: in vivo, human
Method: A cycle consists of twice-daily oral administration of the compound for 4 weeks. Cycles were repeated every 4 weeks (28 days) until progression of disease, unacceptable toxicity, or another discontinuation criterion is met. The dose escalation trial was conducted as open label and multicenter trial. A modified Simon accelerated titration scheme was used for dose escalation.
The primary objective of the trial was to determine the safety, tolerability, and recommended phase II dose (RP2D). The secondary objectives of the trial were to determine the pharmacokinetic profile of the compound, pharmacodynamics of the compound, and preliminary antitumor activity of the compound.

[4] = Concentration in patient urine; assay type: in vivo, human; conditions: patient 0001, 20 mg daily administration
[5] = system: cancer cells and normal cells; assay: Exposure concentration/time and selective killing of cancer versus normal cells; assay type: cell-based
Method: The studies described herein discovered counter-intuitively that cancer cells and cancer stem cells requires much shorter exposure than normal cells to be killed by Compound 1. Normal cells can tolerate up to 24 hours of exposure to Compound 1. Furthermore, the studies here discovered that normal cells can recover after a short period of no-drug exposure, while cancer cells cannot recover once they are exposed to a certain concentration of the Compound 1 for at least 2 hours. Based on these studies, a special pharmacokinetic exposure [termed selective pharmacokinetic profile (SPP), or preferred pharmacokinetic profile (PPP), which is used interchangeably in this publication] was designed for Compound 1 using the data shown below in Table 14 for achieving selective antitumor activity in patients (FIG. 24).
The selective activity of Compound 1 in killing cancer cells and sparing normal cells is represented by the data in Table 14 and illustrated in FIG. 24.

[6] = Phase I clinical trial: safety and tolerability; assay type: in vivo, human
Text: Grade 3 or greater events include: fatigue and diarrhea.

[7] = Toxicity (body weight, deaths) in xenograft-bearing immunosuppressed mice; assay type: in vivo; conditions: for mice died during the treatment: about 90% pure
Method: All regimens were administered daily (qd). Body weights were evaluated periodically during treatment. Each point represents the mean±SEM of eight tumors. […] All regimens were administered daily (qd). Body weights were evaluated periodically during treatment. Each point represents the mean±SEM of eight tumors.
as §1

[8] = Pharmacokinetics in mice of 2, 20, 150 micron particle size formulations; assay type: in vivo; conditions: particle size 125-150 micron vs 2 and 20 micron, 100 mg/kg oral, 20% Gelucire 44/14, 1% Tween 80
Method: In an experiment, micronized Compound 1 prepared in step 6 of Example 2 with a mean particle size of 2 micron, 20 microns, 150 microns were formulated as suspensions in 20% Gelucire 44/14 and 1% Tween 80 and administered orally to mice at 100 mg/kg. Each time point represents the average of 3 mice (FIG. 16).

[9] = system: cancer cells and normal cells; conditions: literature reports (Hirai 1999; Takano 2009); cited from earlier work
[10] = system: advanced cancers; assay: Progression free survival of patients; assay type: in vivo, human
Text: FIG. 22 is a graph that illustrates the comparison of progression free survival of colorectal cancer patients treated with Compound 1. The progression free survival (PFS) of evaluable patients with colorectal cancer treated with Compound 1 was compared against historical PFS data for best supportive care in patients with colorectal cancer.
FIG. 23 is a graph that illustrates the comparison of progression free survival (PFS) versus pharmacokinetic exposure. The PFS of evaluable patients receiving Compound 1 was compared against Compound 1 exposure above or below 1.6 uM for at least 4 hours.

[11] = crystal form used in clinical trials
[12] = particle size less than 5 micron

CC(=O)c1cc2c(o1)C(=O)c1ccccc1C2=O [Crystal Form 1, 2-acetyl-4H, 9H-naphtho[2,3-b]furan-4,9-dione]
anti-tumor activity ([1]; hand grounded Crystal Form 1 in GELUCIRE, po, qd): limited anti-tumor activity; also recorded: low anti-tumor activity

CC(=O)c1cc2c(o1)C(=O)c1ccccc1C2=O [Crystal Form 2, 2-acetyl-4H, 9H-naphtho[2,3-b]furan-4,9-dione]
anti-tumor activity in cancer patients [2, 11]: strong signs of anti-tumor activity
anti-tumor activity ([1]; 100 mg/kg micronized (first crop, process of FIGS. 5A-5B) in GELUCIRE, po, qd): potent anti-tumor activity
pharmacokinetics in cancer patients [3, 11]: desirable pharmacokinetics

CC(=O)c1cc2c(o1)C(=O)c1ccccc1C2=O [Crystal Form 3, 2-acetyl-4H, 9H-naphtho[2,3-b]furan-4,9-dione]
antitumor activity ([1]; 200 mg/kg hand grounded, in gelucire, po, qd): potent antitumor activities

CC(=O)c1cc2c(o1)C(=O)c1ccccc1C2=O [Compound 1, 2-acetylnaphtho[2,3-b]furan-4,9-dione]
concentration of the compound in urine [4]: high concentration
exposure time tolerated by normal cells [5]: up to 24 hours
selectivity of killing ([5]; about or above 0.2 and 30 μM for about 4 hours up to about 24 hours): selective killing of cancer cells and sparing of normal cells
antitumor activity in a colon cancer lesion in kidney ([2]; 20 mg QD): signs of potent antitumor activity
evaluable patients showing no metastatic tumors ([2]; 24 evaluable patients with advanced refractory cancers): over 80%
response of colon cancer metastatic lesion to kidney ([2]; patient 0001, 20 mg daily): complete regression
Best Response, remark (CA 125) ([2]; patient 0014, total daily dose 400 mg bid, Ovarian cancer): CA 125 normalization
Best Response, remark (CEA) ([2]; patient 0015, total daily dose 400 mg bid, Colon adenocarcinoma): CEA ? >30-50%
evaluable patients showing SD/MR by RECIST 1.1 ([2]; tumors refractory to chemotherapies): 16/24 and 16 out of 24
efficacy ([1]; median particle size about 20 micron, 200 mg/kg oral daily): weak or moderate efficacy
anti-tumor activity ([1]; nanoparticles, D50 about 100 nanometers): reduction of anti-tumor activity
efficacy ([1]; particle size greater than 20 micron): no or weak efficacy
anti-tumor activity [1, 12]: potent anti-tumor activity
toxicity [1, 12]: no observed toxicity
maximum tolerated dose (MTD) ([6]; dose escalated from 20 mg to 2000 mg/day): not reached; also recorded: neither MTD nor RP2D has been reached
Urine Color Change, # of Events ([6]; human, in vivo): 2
Urine Color Change, % of Total ([6]; human, in vivo): 2.5%
Urine Color Change, # of Events ([6]; human, in vivo, 4 weeks): 0
toxicity ([7]; about 90% pure Compound 1, GELUCIRE, po, qd): Significant toxicity
mice died during the treatment ([7]; mice with FaDu human head and neck cancer (first experiment)): 4
mice died during the treatment ([7]; mice with MDA-231 human breast cancer (second experiment)): 3
tolerability ([7]; higher purity (about 95% or greater), mice with FaDu or MDA-231 xenografts, po, qd): well-tolerated and showed no signs of toxicity
plasma exposure [8]: lower level of exposure
time plasma concentration was sustained ([3]; 320 mg/day dose level, at a concentration of at least 1.5 μM): over 8 hours
clearance from the blood ([3]; human, in vivo, 20 mg): rapidly cleared from the blood
AUC0-24 ([3]; human, in vivo, 320 mg): 29.79 µM·h
AUC0-24 ([3]; human, in vivo, 800 mg): 26.43 µM·h
AUC0-24 ([3]; human, in vivo, 1400 mg): 28.38 µM·h
toxicity to cancer cells versus normal cells [9]: equally toxic to cancer cells and normal cells
progression free survival ([10]; blood drug concentration above 1 uM, patients with diverse cancers): increase in progression free survival
progression free survival (PFS) ([10]; patients with advanced colorectal cancer refractory to chemotherapy): Prolongation of progression free survival
progression free survival ([10]; patients with exposure above 1.6 uM for at least 4 hours): improvement in progression free survival
